From patent publication US10947213B1 (Merck Patent GmbH, priority 2015, dated 2021) come the findings set out here.

Where a name gives a salt, the structure may show the parent alone. Some results are limits rather than exact numbers.

This test addresses T1, TLR7/NFKb HEK cells (Homo sapiens, UniProt Q9NYK1).
T1 construct: expressed in transfected cells; host or cells: HEK cells (TLR7/NFKb reporter line)
T1 sequence (Q9NYK1 27-1049): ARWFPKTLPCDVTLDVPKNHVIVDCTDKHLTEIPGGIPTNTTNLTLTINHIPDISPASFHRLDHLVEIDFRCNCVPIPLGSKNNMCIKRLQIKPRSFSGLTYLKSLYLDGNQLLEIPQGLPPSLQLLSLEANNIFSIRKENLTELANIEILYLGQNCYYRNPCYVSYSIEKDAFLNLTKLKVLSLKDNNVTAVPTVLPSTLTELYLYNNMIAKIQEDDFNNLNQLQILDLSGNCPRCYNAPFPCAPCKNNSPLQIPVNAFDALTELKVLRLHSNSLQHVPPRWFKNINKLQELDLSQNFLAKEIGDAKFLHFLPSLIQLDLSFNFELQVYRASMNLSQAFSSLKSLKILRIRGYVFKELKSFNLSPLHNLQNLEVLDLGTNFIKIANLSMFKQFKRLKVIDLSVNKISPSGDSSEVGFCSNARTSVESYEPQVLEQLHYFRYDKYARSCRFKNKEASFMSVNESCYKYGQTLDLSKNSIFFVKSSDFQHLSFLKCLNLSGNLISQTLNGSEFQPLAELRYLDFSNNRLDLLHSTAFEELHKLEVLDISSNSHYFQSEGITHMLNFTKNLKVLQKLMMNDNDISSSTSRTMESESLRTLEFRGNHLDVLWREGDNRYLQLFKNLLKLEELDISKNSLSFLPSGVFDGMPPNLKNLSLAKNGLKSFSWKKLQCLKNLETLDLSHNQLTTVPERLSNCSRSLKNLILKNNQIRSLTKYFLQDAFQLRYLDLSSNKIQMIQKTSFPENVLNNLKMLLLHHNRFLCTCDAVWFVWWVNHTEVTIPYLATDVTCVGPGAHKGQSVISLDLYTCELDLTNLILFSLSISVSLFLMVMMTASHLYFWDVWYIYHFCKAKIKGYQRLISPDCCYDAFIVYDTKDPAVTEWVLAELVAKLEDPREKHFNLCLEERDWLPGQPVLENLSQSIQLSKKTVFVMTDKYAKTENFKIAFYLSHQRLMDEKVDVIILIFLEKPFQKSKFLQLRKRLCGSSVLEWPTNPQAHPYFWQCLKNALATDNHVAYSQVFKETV
Put plainly: HEK Cell Assay (TLR7/NFKb reporter, Steady-Glo luciferase readout). In kind it is cell-based. The following applies: 30 min compound preincubation, then R*48 agonist for 5 hours, read-out: Potency. Summed up:
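Steady-Glo luminescence after 5 h stimulation with R*48 agonist, following 30 min compound preincubation. Assay run in HEK cells carrying a TLR7/NFKb luciferase reporter, plated at 5000 cells/well and grown 24 h at 37° C (10% CO2) before treatment.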
As for `N#Cc1ccc(N2C[C@@H](NC(=O)CCC(=O)N3CCC3)C[C@@H](C(F)(F)F)C2)c2cccnc12` (racemic) [Compound 482], the IC50 was in the range of 1000 to 10000 nM.

On to `c1ccc2c(N3CCC(CNCCN4CCOCC4)CC3)ccnc2c1` [Compound 7, 2-morpholino-N-((1-(quinolin-4-yl)piperidin-4-yl)methyl)ethanamine], for which the IC50 is more than 10000 nM.

Turning to `C[C@@H]1CN(c2ccnc3nccnc23)C[C@H](C(=O)N2CC(N)C2)O1` [Compound 63, (3-aminoazetidin-1-yl)((2R,6R)-6-methyl-4-(pyrido[2,3-b]pyrazin-8-yl)morpholin-2-yl)methanone], the IC50 was more than 10000 nM.

Take `CCN(CC)C1CCN(C(=O)C2CCN(c3ccnc4nccnc34)CC2)CC1` [Compound 2, (4-(diethylamino)piperidin-1-yl)(1-(pyrido[2,3-b]pyrazin-8-yl)piperidin-4-yl)methanone]: the IC50 was 1000 to 10000 nM.

On to `C[C@H]1C[C@@H](NC(=O)C(N)C2CC2)CN(c2ccc(C(F)F)c3ncccc23)C1` (stereo partly drawn) [Compound 306, 2-amino-2-cyclopropyl-N-[(3R,5S)-1-[8-(difluoromethyl)quinolin-5-yl]-5-methylpiperidin-3-yl]acetamide], for which the IC50 was less than 1000 nM.

As for `COC(C)C(=O)N[C@@H]1C[C@H](C)CN(c2ccnc3nccnc23)C1` (single isomer, unassigned) [Compound 160], the IC50 is more than 10000 nM.

Regarding `C[C@H]1C[C@@H](NC(=O)CN2CC(N)C2)CN(c2ccc(C(F)(F)F)c3ncccc23)C1` [Compound 280, 2-(3-aminoazetidin-1-yl)-N-[(3R,5S)-5-methyl-1-[8-(trifluoromethyl)quinolin-5-yl]piperidin-3-yl]acetamide], the IC50 is less than 1000 nM.

Take `N#Cc1ccc(N2CC(N)CC(C(F)(F)F)C2)c2cccnc12` (single isomer, unassigned) [Compound 73]: the IC50 is less than 1000 nM.

For the molecule `C[C@H]1C[C@@H](N)CN(c2ccc(C(N)=O)c3ncccc23)C1` [Compound 180, 5-[(3R,5S)-3-amino-5-methylpiperidin-1-yl]quinoline-8-carboxamide], the IC50 is less than 1000 nM.

`N#Cc1ccc(N2CC(NC(=O)CC3(N)CCOCC3)CC(C(F)(F)F)C2)c2cccnc12` (racemic) [Compound 493, 2-(4-Amino-tetrahydro-pyran-4-yl)-N-[1-(8-cyano-quinolin-5-yl)-5-trifluoromethyl-piperidin-3-yl]-acetamide hydrochloride]: the IC50 was less than 1000 nM.

`CC(C)(N)CC(=O)NC1CN(c2ccc(C#N)c3nccnc23)CC(F)(F)C1` (stereo not drawn) [Compound 505, 3-Amino-N-[1-(8-cyano-quinoxalin-5-yl)-5,5-difluoro-piperidin-3-yl]-3-methyl-butyramide hydrochloride]: the IC50 is 1000 to 10000 nM.

For `C[C@H]1C[C@@H](NC(=O)CO)CN(c2ccnc3ccccc23)C1` [Compound 14, 2-hydroxy-N-((3R,5S)-5-methyl-1-(quinolin-4-yl)piperidin-3-yl)acetamide], the IC50 is more than 10000 nM.

With `C[C@H]1C[C@@H](NC(=O)CN2CCC(F)(F)CC2)CN(c2ccc(C(F)(F)F)c3nccnc23)C1` [Compound 354, 2-(4,4-difluoropiperidin-1-yl)-N-[(3R,5S)-5-methyl-1-[8-(trifluoromethyl)quinoxalin-5-yl]piperidin-3-yl]acetamide], the IC50 lay within 1000 to 10000 nM.

Regarding `COCCN[C@H]1CN(c2ccc(C#N)c3nccnc23)CC(C)(C)C1` [Compound 216, 8-[(5R)-5-[(2-methoxyethyl)amino]-3,3-dimethylpiperidin-1-yl]quinoxaline-5-carbonitrile], the IC50 is less than 1000 nM.

Consider `C[C@H]1C[C@@H](NC(=O)C(C)(C)C2CCN(C)CC2)CN(c2ccc(C#N)c3nccnc23)C1` [Compound 349, N-[(3R,5S)-1-(8-cyanoquinoxalin-5-yl)-5-methylpiperidin-3-yl]-2-methyl-2-(1-methylpiperidin-4-yl)propanamide], for which the IC50 was less than 1000 nM.

On to `C[C@@H]1CN(c2ccnc3nccnc23)C[C@H](CN2CCC(N(C)C)CC2)O1` [Compound 55, N,N-dimethyl-1-(((2S,6R)-6-methyl-4-(pyrido[2,3-b]pyrazin-8-yl)morpholin-2-yl)methyl)piperidin-4-amine], for which the IC50 was less than 1000 nM.

Turning to `C[C@H]1C[C@@H](N)CN(c2ccc(C#N)c3nsnc23)C1` [Compound 552, 7-((3R,5S)-3-Amino-5-methyl-piperidin-1-yl)-benzo[1,2,5]thiadiazole-4-carbonitrile hydrochloride], the IC50 was less than 1000 nM.

With `C[C@@H]1C[C@@H](CN2CCC(N3CCOCC3)CC2)CN(c2ccc(C(F)(F)F)c3ncccc23)C1` (relative stereo) [Compound 536, trans-5-[3-Methyl-5-(4-morpholin-4-yl-piperidin-1-ylmethyl)-piperidin-1-yl]-8-trifluoromethyl-quinoline], the IC50 lay in the range of 1000 to 10000 nM.

Consider `C[C@H]1C[C@@H](NC(=O)CN2CCOCC2)CN(c2ccc(C(F)(F)F)c3nccnc23)C1` [Compound 249, N-[(3R,5S)-5-methyl-1-[8-(trifluoromethyl)quinoxalin-5-yl]piperidin-3-yl]-2-(morpholin-4-yl)acetamide], for which the IC50 is less than 1000 nM.

With `CCN(CC)CCNCC1CCN(c2ccnc3cc(F)ccc23)CC1` [Compound 383, N,N-Diethyl-N′-[1-(7-fluoro-quinolin-4-yl)-piperidin-4-ylmethyl]-ethane-1,2-diamine], the IC50 was 1000 to 10000 nM.

As to `C[C@H]1C[C@@H](NC(=O)CN2CCN(C)CC2)CN(c2ccc(C(F)(F)F)c3ncccc23)C1` [Compound 243, N-[(3R,5S)-5-methyl-1-[8-(trifluoromethyl)quinolin-5-yl]piperidin-3-yl]-2-(4-methylpiperazin-1-yl)acetamide], the IC50 is less than 1000 nM.

Consider `O=C(N[C@@H]1CNC[C@@H]1F)C1CCN(c2ccc(C(F)(F)F)c3ncccc23)CC1` [Compound 464, 1-(8-Trifluoromethyl-quinolin-5-yl)-piperidine-4-carboxylic acid ((3R,4S)-4-fluoro-pyrrolidin-3-yl)-amide hydrochloride], for which the IC50 was less than 1000 nM.

Turning to `C[C@H]1C[C@@H](N)CN(c2ccc(C(F)F)c3ncccc23)C1` [Compound 68, (3R,5S)-1-[8-(difluoromethyl)quinolin-5-yl]-5-methylpiperidin-3-amine], the IC50 is less than 1000 nM.

`COCCN[C@@H]1C[C@H](C)CN(c2ccnc3nccnc23)C1` [Compound 18, (3R,5S)—N-(2-methoxyethyl)-5-methyl-1-(pyrido[2,3-b]pyrazin-8-yl)piperidin-3-amine]: the IC50 is more than 10000 nM.

In the case of `Cc1cc2c(N3C[C@@H](C)C[C@@H](N)C3)ccnc2n1C` [Compound 9, (3R,5S)-1-(1,2-dimethyl-1H-pyrrolo[2,3-b]pyridin-4-yl)-5-methylpiperidin-3-amine], the IC50 is more than 10000 nM.

Consider `COCCN[C@H]1C[C@@H](C(F)(F)F)CN(c2ccc(C#N)c3nccnc23)C1` (relative stereo) [Compound 221, cis-8-[3-[(2-methoxyethyl)amino]-5-(trifluoromethyl)piperidin-1-yl]quinoxaline-5-carbonitrile], for which the IC50 was in the range of 1000 to 10000 nM.

For `C[C@H]1C[C@@H](NC(=O)C2CC(F)(F)C2)CN(c2ccc(C(F)(F)F)c3ncccc23)C1` [Compound 247, 3,3-difluoro-N-[(3R,5S)-5-methyl-1-[8-(trifluoromethyl)quinolin-5-yl]piperidin-3-yl]cyclobutane-1-carboxamide], the IC50 is less than 1000 nM.

`CN(C)CC(=O)N[C@H]1CN(c2ccc(C#N)c3nccnc23)CC(C)(C)C1` [Compound 217, N-[(3R)-1-(8-cyanoquinoxalin-5-yl)-5,5-dimethylpiperidin-3-yl]-2-(dimethylamino)acetamide]: the IC50 was less than 1000 nM.

As for `C[C@H]1C[C@@H](NC(C)(C)CO)CN(c2ccc(C#N)c3nccnc23)C1` [Compound 231, 8-[(3R,5S)-3-[(1-hydroxy-2-methylpropan-2-yl)amino]-5-methylpiperidin-1-yl]quinoxaline-5-carbonitrile], the IC50 is less than 1000 nM.

Regarding `O=C(CCCN1CCCCC1)N1CCN(c2ccnc3nccnc23)CC1` [Compound 400, 4-Piperidin-1-yl-1-(4-pyrido[2,3-b]pyrazin-8-yl-piperazin-1-yl)-butan-1-one], the IC50 was more than 10000 nM.
